Test results: PMC11530130, “Peripherally restricted PICK1 inhibitor mPD5 ameliorates pain behaviors in murine inflammatory and neuropathic pain models” (JCI Insight, 2024)
“And” between values parts separate entries of the source, which are not always exact repeats. Identical values can stand only once.

Tested on: mice, CFA model of inflammatory pain
Experiment: CFA model, Hargreaves test (thermally evoked pain)
Type: in vivo, mouse
Conditions: s.c. 10 μmol/kg
Experimental: Induction of inflammatory pain (CFA model).
Injury was induced on the right hind paw, whereas the contralateral left hind paw was used as internal control of the C57BL/6J male and female mice (Janvier, France). The inflammatory pain was induced by injection of 50 μL undiluted Complete Freund’s Adjuvant (CFA) (F5881, Sigma) unilaterally into the intraplantar surface of the right hind paw, whereas control mice were injected with the same amount of 0.9 % saline (B. Braun, Germany). All intraplantar injections were performed with an insulin needle (0.3 mL BD Micro-Fine) while the animal was under isoflurane anaesthesia (2%) for maximum 60 seconds. Von Frey was applied up to 11 days after unilateral CFA injection depending on the experiment. (For Figure 3A, the experiment was run in cohort with Figure 1A of (9)).
Induction of neuropathic pain (SNI model). […]
Post-surgical analgesia included s.c. injection of 5 mg/kg carprofen (Carprosan vet, 50 mg/mL mixed 1:25 in sterile ddH2O, Dechra, Le Vet Beheer B.V., Netherlands, Batch: 050520) right after surgery and the following day. Post-surgical care included daily severity scoring for four days, and medical clips removed. X-ray imaging (IVIS Lumina XR Apparatus, Caliper Life Sciences, Belgium) was conducted to estimate the relative femoral bone density of the ipsilateral femur at baseline and at the experimental endpoint. The test battery of the CIBP model was carried out 45 or 90 min after morphine and mPD5 administration respectively to accommodate the peak efficacy […]
Mechanically evoked pain (von Frey test).
Unless otherwise specified, von Frey occurred as described in the following. Animals were habituated to the experimental room for a minimum of 60 min before initiation of the experiment. Mechanical paw withdrawal threshold (PWT) was determined by von Frey measurements of both hind paws. Von Frey filaments ranging from 0.04 to 2 g (g = gram- […]
Filaments in ascending order were applied to the frontocentral plantar surface of the hind paws.
Mice were placed in PVC plastic boxes (11.5 cm x 14 cm) on a wire mesh and allowed minimum 20 min habituation prior of experiment initiation. Each von Frey hair was applied five times with adequate resting periods between each application and number of withdrawals recorded. The withdrawal threshold was determined as the von Frey filament eliciting at least three positive trials out of the five applications in two consecutive filaments. A positive trial was defined as sudden paw withdrawal, flinching and/or paw licking induced by the filament.
For the CIBP model, two habituation sessions were performed on separated days with mice placed in the von Frey equipment for 1-1.5 hours in the presence of the experimenter on day one and random von Frey pocking with the 0.6 g filament on day two. Von Frey monofilaments (North Coast Touch Test, North Coast Medical, Inc.) with target forces of 0.04g, 0.07g, 0.16g, […]
down method” (PWT=10Xf+kδ) starting with the 0.6 g filament. Positive response was defined as; withdrawal, shaking or grooming of paw following a 2-3 second stimulation. In case, of unclear response, stimulus was repeated after 10-15 seconds.
For the STZ model, the mechanical threshold response of the injected mice was measured with […]
injection of test compounds on day 14, mechanical threshold was measured at 1 hour, 2 hours, 4 hours and 6 hours and again on day 15. […]
Thermally evoked pain (Hargreaves test).
A baseline Hargreaves test was performed on day 0 before inflammatory pain was induced as described in section 2.13. In the Hargreaves test, the mouse was placed in a container on a glass table and left to habituate for at least 15 min. Using the Hargreaves apparatus, a heat beam from beneath was directed towards the hind paws of the mouse, and the paw withdrawal time […]
was registered automatically. The cut off was set to maximum 30 seconds to avoid skin injury and the experiment was repeated 5 times for each paw with at least five min in between […]
measurements. […]

CCCCCCCCCCCCCC(=O)N(CCOCCOCCC(=O)N[C@@H](Cc1c[nH]cn1)C(=O)N[C@@H](Cc1c[nH]c2ccccc12)C(=O)N[C@@H](CC(C)C)C(=O)N[C@@H](CCCCN)C(=O)N[C@H](C(=O)O)C(C)C)CCOCCOCCC(=O)N[C@@H](Cc1c[nH]cn1)C(=O)N[C@@H](Cc1c[nH]c2ccccc12)C(=O)N[C@@H](CC(C)C)C(=O)N[C@@H](CCCCN)C(=O)N[C@H](C(=O)O)C(C)C [mPD5, myristoyl-NPEG4-(HWLKV)2]
effect on the contralateral paw (Hargreaves): No effect
effect on thermal hypersensitivity of the ipsilateral paw (1 hour after administration): reverted
paw withdrawal latency (Hargreaves), individual mice (contralateral paw, 1 h): 10.93 and 8.17 and 12.67 and 7.53 and 10.3 and 14.03
paw withdrawal latency (Hargreaves), individual mice (contralateral paw, 5 h): 15.97 and 9.47 and 12.27 and 10.97 and 14.37 and 8.3
paw withdrawal latency (Hargreaves), individual mice (contralateral paw, 21 h): 15.23 and 12.33 and 19.73 and 9.13 and 7.03 and 15.57
paw withdrawal latency (Hargreaves), individual mice (ipsilateral paw, 1 h): 8.4 and 16.3 and 10.87 and 15.83 and 12.17 and 11.77
paw withdrawal latency (Hargreaves), individual mice (ipsilateral paw, 5 h): 10.8 and 9.77 (2×) and 5.13 and 6.33 and 4.77
paw withdrawal latency (Hargreaves), individual mice (ipsilateral paw, 21 h): 6.3 and 9.13 and 2.77 and 3.3 and 2.37 and 11.83
